Drawing on ChEMBL document CHEMBL1124251, “Topical nonsteroidal antipsoriatic agents. 2. 2,3-(Alkylidenedioxy)naphthalene analogues of lonapalene” (1988), this text covers Inhibition and inhibition for 17 compounds.

One may read the Inhibition as how much of the control response was suppressed. The low end stands for a weak effect, the high end for a strong effect.

The structures appear in SMILES notation.

The subject of the first assay is Mus musculus. Kind of assay: Percent inhibition of arachidonic acid induced mouse ear edema at 2 mg of total dose. The class given is functional.
Consider `CCCC(=O)Oc1c2c(c(OC(=O)CCC)c3cc(Cl)ccc13)OCCO2`, for which the Inhibition came to 26%.

Compound `CC(=O)Oc1c2c(c(OC(C)=O)c3cc(Cl)ccc13)OCCCO2` registered an Inhibition of 40%.

Compound `CCC(=O)Oc1c2c(c(OC(=O)CC)c3cc(Cl)ccc13)OCO2` returned an Inhibition of 35%.

Compound `CCC(=O)Oc1c2c(c(OC(=O)CC)c3cc(Cl)ccc13)OCCCO2` gave an Inhibition of 10%.

On to `CC(C)(C)C(=O)Oc1c2c(c(OC(=O)C(C)(C)C)c3cc(Cl)ccc13)OCCCO2`, for which the Inhibition is on record as 10%.

On to `O=C(Oc1c2c(c(OC(=O)c3ccccc3)c3cc(Cl)ccc13)OCO2)c1ccccc1`, for which the Inhibition stood at 10%.

For `CC(=O)Oc1c2c(c(OC(C)=O)c3cc(Cl)ccc13)OCO2`, the Inhibition was 61%.

For `CC(C)C(=O)Oc1c2c(c(OC(=O)C(C)C)c3cc(Cl)ccc13)OCCO2`, the Inhibition was 75%.

In turn, `CC(C)(C)C(=O)Oc1c2c(c(OC(=O)C(C)(C)C)c3cc(Cl)ccc13)OCCO2` came in with an Inhibition of 41%.

The compound `COc1c(OC)c(OC(C)=O)c2cc(Cl)ccc2c1OC(C)=O` [LONAPALENE] came in with an Inhibition of 54%.

For `CC(=O)Oc1c2c(c(OC(C)=O)c3cc(Cl)ccc13)OCCO2`, the Inhibition amounted to 24%.

Regarding `CCC(=O)Oc1c2c(c(OC(=O)CC)c3cc(Cl)ccc13)OCCO2`, the Inhibition is given as 30%.

The compound `CCCC(=O)Oc1c2c(c(OC(=O)CCC)c3cc(Cl)ccc13)OCCCO2` had an Inhibition of 35%.

Regarding `CC(C)(C)C(=O)Oc1c2c(c(OC(=O)C(C)(C)C)c3cc(Cl)ccc13)OCO2`, the Inhibition came out at 8%.

As for `CC(C)C(=O)Oc1c2c(c(OC(=O)C(C)C)c3cc(Cl)ccc13)OCCCO2`, the Inhibition was 27%.

The subject of the next assay is Mus musculus. Kind of assay: Percent inhibition of arachidonic acid induced mouse ear edema at 2 mg of total dose; Insufficiently soluble in acetone. Type of assay: functional, organism-based.
In the case of `O=C(Oc1c2c(c(OC(=O)c3ccccc3)c3cc(Cl)ccc13)OCCCO2)c1ccccc1`, the inhibition entry is on record as “Insufficiently soluble in acetone”.

For the compound `O=C(Oc1c2c(c(OC(=O)c3ccccc3)c3cc(Cl)ccc13)OCCO2)c1ccccc1`, the inhibition result is recorded as “Insufficiently soluble in acetone”.
